{"source": "ChEMBL document CHEMBL5212743", "about": "“Selectivity Literature for EUbOPEN Chemogenomics Library wave 3” (2023)", "key": {"[1]": {"target": "Calcium/calmodulin-dependent protein kinase type 1B (Homo sapiens, UniProt Q6P2M8)", "sequence (Q6P2M8 whole entry)": "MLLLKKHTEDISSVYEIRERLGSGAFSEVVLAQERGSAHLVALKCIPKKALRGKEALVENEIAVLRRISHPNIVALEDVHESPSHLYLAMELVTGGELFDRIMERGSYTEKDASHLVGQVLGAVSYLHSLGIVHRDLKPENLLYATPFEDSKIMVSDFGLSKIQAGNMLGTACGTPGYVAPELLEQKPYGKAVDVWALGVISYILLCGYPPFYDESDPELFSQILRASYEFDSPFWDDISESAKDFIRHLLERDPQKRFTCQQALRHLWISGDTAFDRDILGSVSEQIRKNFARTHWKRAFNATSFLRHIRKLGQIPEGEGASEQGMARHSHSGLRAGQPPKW", "assay": "Selectivity interaction (KinomeScan (DiscoverX)) EUB0000746a PNCK", "conditions": "at 1 µM"}, "[2]": {"target": "T1, Mitogen-activated protein kinase 12 (Homo sapiens) (UniProt P53778)", "T1 sequence (whole entry)": "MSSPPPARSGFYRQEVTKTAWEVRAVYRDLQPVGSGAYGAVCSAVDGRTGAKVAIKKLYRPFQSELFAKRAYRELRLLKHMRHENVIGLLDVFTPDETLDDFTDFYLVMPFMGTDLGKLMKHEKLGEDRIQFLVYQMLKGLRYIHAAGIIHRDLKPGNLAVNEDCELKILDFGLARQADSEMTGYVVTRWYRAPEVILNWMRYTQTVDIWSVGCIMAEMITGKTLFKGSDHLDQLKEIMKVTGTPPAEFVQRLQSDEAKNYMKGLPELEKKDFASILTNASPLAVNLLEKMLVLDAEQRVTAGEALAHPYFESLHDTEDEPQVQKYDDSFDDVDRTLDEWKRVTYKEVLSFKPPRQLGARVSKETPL", "assay": "Selectivity interaction (KinomeScan (DiscoverX)) EUB0000746a MAPK12", "conditions": "at 1 µM"}, "[3]": {"target": "Phosphatidylinositol 4,5-bisphosphate 3-kinase catalytic subunit alpha isoform (Homo sapiens, UniProt P42336)", "sequence (P42336 whole entry, canonical isoform)": "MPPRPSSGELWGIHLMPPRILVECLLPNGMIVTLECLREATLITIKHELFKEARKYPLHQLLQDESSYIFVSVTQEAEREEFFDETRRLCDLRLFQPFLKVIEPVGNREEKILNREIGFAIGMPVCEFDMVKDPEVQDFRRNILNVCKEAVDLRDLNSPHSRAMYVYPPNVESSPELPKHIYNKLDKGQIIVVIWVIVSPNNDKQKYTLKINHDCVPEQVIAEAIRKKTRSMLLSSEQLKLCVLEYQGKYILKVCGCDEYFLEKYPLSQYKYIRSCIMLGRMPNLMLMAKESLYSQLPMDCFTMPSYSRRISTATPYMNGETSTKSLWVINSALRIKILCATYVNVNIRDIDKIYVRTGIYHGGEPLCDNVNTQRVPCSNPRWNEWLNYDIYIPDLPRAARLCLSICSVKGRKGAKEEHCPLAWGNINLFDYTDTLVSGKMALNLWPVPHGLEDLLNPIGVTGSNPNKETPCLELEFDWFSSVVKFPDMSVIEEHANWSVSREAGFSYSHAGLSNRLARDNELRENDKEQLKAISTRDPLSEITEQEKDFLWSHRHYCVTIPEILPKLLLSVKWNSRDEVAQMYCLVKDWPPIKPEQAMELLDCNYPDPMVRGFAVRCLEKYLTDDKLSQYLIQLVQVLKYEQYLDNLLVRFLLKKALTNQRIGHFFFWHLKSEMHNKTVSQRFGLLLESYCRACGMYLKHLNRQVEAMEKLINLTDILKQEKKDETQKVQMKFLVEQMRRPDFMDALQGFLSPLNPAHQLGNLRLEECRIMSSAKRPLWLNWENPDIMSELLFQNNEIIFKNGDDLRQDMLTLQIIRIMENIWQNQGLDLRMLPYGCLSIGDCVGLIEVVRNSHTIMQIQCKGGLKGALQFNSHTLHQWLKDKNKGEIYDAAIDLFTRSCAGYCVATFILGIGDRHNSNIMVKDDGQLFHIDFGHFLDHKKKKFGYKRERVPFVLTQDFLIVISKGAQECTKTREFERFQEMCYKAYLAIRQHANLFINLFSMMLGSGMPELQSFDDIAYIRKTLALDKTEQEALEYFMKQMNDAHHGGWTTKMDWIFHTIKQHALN", "assay": "Selectivity interaction (KinomeScan (DiscoverX)) EUB0000746a PIK3CA", "conditions": "at 1 µM"}, "[4]": {"target": "T2, Alpha-1D adrenergic receptor (Homo sapiens, UniProt P25100)", "T2 sequence (P25100 whole entry)": "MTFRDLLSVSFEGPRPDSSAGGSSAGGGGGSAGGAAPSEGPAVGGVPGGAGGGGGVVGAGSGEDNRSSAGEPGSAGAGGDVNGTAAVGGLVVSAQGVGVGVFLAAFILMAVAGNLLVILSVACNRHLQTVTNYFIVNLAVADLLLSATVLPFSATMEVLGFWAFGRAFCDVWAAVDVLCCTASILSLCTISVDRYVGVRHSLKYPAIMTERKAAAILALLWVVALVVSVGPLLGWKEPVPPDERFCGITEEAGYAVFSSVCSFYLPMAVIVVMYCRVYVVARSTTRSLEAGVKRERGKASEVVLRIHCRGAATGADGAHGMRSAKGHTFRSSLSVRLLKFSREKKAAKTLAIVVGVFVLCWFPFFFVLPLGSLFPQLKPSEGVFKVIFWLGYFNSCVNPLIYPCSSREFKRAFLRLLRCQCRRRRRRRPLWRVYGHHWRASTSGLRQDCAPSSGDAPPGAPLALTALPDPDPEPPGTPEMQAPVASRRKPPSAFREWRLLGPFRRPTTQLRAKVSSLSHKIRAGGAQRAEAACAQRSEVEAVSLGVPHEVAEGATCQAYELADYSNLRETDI", "assay": "Selectivity interaction (GPCR panel (PDSP screen)) EUB0000746a ADRA1D"}, "D(3) dopamine receptor": {"target": "D(3) dopamine receptor (Homo sapiens, UniProt P35462)", "sequence (P35462 whole entry)": "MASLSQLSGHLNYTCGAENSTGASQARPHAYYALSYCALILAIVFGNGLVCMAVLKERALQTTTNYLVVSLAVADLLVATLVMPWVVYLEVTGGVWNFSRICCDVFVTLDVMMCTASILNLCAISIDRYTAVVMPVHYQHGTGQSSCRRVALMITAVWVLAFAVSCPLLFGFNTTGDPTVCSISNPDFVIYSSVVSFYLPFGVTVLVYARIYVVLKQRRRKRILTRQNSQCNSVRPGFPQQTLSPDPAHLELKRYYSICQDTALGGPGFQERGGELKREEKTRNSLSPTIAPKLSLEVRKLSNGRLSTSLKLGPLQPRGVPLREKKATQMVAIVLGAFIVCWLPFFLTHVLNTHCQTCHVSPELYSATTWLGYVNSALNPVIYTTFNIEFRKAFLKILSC", "assay": "Selectivity interaction (GPCR panel (PDSP screen)) EUB0000746a DRD3"}, "[5]": {"target": "T3, Adenosine receptor A3 (Homo sapiens) (UniProt P0DMS8)", "T3 sequence (whole entry)": "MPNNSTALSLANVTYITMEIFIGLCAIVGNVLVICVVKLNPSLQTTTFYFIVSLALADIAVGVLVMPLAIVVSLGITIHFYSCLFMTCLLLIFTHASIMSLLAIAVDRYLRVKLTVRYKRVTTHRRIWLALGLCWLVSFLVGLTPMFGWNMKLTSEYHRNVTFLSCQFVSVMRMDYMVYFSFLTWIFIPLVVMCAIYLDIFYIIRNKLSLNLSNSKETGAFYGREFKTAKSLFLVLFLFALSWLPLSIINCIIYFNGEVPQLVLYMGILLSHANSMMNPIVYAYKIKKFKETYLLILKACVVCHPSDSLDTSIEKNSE", "assay": "Selectivity interaction (CEREP panel (Eurofins, enzymes and uptake assays)) EUB0000544a ADORA3", "conditions": "at 10 µM"}, "[6]": {"target": "Translocator protein (Homo sapiens) (UniProt P30536)", "sequence (P30536 whole entry)": "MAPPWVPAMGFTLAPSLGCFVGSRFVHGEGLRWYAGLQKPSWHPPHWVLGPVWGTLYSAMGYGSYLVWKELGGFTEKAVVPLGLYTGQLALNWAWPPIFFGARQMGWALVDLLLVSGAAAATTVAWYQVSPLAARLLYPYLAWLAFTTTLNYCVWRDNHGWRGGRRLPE", "assay": "Selectivity interaction (CEREP panel (Eurofins, binding assay)) EUB0000544a TSPO", "conditions": "at 10 µM"}, "[7]": {"target": "T4, Gamma-aminobutyric acid receptor subunit alpha-1 (Homo sapiens, UniProt P14867)", "T4 sequence (P14867 whole entry)": "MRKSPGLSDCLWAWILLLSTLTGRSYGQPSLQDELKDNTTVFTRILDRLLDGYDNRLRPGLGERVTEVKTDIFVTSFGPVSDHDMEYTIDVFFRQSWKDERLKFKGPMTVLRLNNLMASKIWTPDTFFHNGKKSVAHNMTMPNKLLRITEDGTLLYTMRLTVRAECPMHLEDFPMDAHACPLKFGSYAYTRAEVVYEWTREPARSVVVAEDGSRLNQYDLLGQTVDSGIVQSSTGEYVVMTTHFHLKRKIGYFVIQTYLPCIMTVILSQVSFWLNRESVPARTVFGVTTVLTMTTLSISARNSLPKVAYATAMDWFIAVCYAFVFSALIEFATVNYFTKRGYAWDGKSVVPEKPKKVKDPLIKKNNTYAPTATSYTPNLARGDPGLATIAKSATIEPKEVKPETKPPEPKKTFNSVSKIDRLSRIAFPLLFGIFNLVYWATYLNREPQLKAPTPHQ", "assay": "Selectivity interaction (GPCR panel (PDSP screen)) EUB0000544a GABRA1"}, "[8]": {"target": "T5, Homeodomain-interacting protein kinase 4 (Homo sapiens) (UniProt Q8NE63)", "T5 sequence (whole entry)": "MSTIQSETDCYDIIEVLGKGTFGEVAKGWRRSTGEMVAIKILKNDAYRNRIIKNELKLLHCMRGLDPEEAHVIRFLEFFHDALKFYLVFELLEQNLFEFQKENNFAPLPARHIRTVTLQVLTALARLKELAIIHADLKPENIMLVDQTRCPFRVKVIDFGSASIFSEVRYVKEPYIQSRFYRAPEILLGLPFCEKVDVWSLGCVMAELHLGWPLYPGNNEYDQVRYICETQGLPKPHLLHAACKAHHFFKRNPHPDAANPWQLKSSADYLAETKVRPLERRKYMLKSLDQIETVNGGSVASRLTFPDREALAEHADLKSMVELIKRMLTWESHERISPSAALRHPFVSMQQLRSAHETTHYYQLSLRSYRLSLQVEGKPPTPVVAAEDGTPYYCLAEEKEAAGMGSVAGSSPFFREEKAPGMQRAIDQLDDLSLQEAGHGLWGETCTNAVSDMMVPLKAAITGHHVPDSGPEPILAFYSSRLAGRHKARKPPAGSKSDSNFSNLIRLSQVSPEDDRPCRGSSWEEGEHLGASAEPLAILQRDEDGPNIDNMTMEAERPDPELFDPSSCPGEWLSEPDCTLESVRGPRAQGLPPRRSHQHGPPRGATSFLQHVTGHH", "assay": "Selectivity interaction (KinomeScan (DiscoverX)) EUB0000544a HIPK4", "conditions": "at 1 µM"}, "[9]": {"target": "T3, Adenosine receptor A3 (Homo sapiens)", "assay": "Selectivity interaction (CEREP panel (Eurofins, binding assay)) EUB0000544a ADORA3", "conditions": "at 10 µM"}, "[10]": {"target": "T6, Alpha-2B adrenergic receptor (Homo sapiens) (UniProt P18089)", "T6 sequence (whole entry)": "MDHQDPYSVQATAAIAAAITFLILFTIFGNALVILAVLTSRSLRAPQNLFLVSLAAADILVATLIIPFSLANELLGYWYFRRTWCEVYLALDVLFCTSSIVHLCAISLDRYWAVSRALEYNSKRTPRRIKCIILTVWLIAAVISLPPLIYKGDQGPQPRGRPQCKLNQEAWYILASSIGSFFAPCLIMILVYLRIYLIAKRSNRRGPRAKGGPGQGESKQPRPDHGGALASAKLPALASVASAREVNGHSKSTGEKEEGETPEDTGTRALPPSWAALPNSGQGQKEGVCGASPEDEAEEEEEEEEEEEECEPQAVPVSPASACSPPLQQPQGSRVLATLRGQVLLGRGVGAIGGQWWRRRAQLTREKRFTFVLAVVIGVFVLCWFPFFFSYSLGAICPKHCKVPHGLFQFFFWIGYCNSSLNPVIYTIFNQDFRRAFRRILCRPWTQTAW", "assay": "Selectivity interaction (CEREP panel (Eurofins, enzymes and uptake assays)) EUB0000544a ADRA2B", "conditions": "at 10 µM"}, "[11]": {"target": "T6, Alpha-2B adrenergic receptor (Homo sapiens)", "assay": "Selectivity interaction (CEREP panel (Eurofins, binding assay)) EUB0000544a ADRA2B", "conditions": "at 10 µM"}, "[12]": {"target": "T4, Gamma-aminobutyric acid receptor subunit alpha-1", "assay": "Selectivity interaction (GPCR panel (PDSP screen)) EUB0000264b GABRA1"}, "[13]": {"target": "T7, Myosin-IIIb (Homo sapiens) (UniProt Q8WXR4)", "T7 sequence (whole entry)": "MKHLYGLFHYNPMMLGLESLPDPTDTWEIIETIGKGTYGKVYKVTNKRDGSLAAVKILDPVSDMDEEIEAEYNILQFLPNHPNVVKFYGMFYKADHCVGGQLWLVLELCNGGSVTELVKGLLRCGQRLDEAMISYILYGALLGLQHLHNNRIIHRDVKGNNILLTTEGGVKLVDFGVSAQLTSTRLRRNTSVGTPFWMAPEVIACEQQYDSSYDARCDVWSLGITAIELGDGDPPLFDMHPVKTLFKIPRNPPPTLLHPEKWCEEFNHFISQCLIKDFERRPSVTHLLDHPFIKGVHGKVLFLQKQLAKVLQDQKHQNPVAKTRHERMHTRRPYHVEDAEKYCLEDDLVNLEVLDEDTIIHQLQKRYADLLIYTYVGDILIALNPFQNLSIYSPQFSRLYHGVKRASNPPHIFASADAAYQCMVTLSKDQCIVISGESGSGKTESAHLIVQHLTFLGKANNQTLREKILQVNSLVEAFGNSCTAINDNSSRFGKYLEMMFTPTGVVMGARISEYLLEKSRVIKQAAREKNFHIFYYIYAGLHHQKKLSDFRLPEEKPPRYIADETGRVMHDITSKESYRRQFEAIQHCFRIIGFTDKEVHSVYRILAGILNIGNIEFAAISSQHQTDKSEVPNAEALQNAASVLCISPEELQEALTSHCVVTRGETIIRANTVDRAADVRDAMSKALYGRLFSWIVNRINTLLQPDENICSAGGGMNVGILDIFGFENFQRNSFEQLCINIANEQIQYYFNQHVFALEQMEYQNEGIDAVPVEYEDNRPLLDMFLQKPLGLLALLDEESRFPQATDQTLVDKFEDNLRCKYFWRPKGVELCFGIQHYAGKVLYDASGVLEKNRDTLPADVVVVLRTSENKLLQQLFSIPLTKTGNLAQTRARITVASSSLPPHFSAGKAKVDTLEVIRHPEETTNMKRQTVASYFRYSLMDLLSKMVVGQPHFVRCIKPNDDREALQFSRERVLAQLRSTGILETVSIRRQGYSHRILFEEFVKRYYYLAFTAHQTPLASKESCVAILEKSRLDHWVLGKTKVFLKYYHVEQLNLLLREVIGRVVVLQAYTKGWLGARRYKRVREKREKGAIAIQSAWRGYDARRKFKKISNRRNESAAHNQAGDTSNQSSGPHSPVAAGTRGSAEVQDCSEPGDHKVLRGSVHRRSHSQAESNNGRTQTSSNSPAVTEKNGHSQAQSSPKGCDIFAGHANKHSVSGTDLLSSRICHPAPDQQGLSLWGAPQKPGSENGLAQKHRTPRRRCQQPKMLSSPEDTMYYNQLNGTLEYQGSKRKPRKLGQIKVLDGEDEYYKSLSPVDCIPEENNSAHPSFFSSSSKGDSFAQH", "assay": "Selectivity interaction (KinomeScan (DiscoverX)) EUB0000264b MYO3B", "conditions": "at 10 µM"}, "[14]": {"target": "Serine/threonine-protein kinase PRP4 homolog (Homo sapiens) (UniProt Q13523)", "sequence (Q13523 whole entry)": "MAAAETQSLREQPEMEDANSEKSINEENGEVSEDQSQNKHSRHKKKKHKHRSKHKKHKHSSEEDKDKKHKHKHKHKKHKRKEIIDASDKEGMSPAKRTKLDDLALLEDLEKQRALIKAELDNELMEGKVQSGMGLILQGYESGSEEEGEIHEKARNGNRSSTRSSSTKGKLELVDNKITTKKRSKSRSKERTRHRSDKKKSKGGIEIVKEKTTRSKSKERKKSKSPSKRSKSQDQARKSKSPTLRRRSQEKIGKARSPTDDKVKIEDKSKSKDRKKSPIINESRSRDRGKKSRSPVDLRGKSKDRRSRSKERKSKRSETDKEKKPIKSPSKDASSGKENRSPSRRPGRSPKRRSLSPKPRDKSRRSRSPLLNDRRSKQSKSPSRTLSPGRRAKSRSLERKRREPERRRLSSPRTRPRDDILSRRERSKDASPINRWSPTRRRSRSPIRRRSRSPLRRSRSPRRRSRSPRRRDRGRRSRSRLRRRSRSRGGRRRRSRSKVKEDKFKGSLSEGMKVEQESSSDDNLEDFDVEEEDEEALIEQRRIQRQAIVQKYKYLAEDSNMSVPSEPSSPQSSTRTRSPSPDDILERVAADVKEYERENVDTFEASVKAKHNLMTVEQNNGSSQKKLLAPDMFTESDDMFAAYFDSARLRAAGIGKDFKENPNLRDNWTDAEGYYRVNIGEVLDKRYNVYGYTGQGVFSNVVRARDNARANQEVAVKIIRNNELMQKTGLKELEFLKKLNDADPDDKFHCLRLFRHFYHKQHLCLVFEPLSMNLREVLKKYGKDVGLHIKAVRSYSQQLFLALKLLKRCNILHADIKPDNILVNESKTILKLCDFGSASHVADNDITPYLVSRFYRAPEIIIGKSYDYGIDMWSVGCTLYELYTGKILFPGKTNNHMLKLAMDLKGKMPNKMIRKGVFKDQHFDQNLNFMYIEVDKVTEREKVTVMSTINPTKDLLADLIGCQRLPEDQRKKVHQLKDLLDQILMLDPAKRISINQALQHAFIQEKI", "assay": "Selectivity interaction (KinomeScan (DiscoverX)) EUB0000264b PRPF4B", "conditions": "at 10 µM"}}}
{"smiles": "O=C(NS(=O)(=O)c1ccc(NCC2CCOCC2)c([N+](=O)[O-])c1)c1ccc(N2CCN(Cc3ccc(C(F)(F)F)cc3-c3ccc(Cl)cc3)CC2)cc1Oc1cnc2[nH]ccc2c1", "note": "[A-1210227]", "values": [{"measurement": "% of control", "setting": "[1]", "value": 0, "unit": "%"}, {"measurement": "% of control", "setting": "[2]", "value": 50, "unit": "%"}, {"measurement": "% of control", "setting": "[3]", "value": 50, "unit": "%"}, {"measurement": "Ki", "setting": "[4]", "value": "> 10000", "unit": "nM"}, {"measurement": "Ki", "setting": "D(3) dopamine receptor", "value": "> 10000", "unit": "nM"}]}
{"smiles": "COc1ccc2c(c1)O[C@@H](c1ccc(OC)c(OC)c1)C[C@H]2NC(=O)C1(c2ccc3c(c2)OC(F)(F)O3)CC1", "note": "[A-1596586]", "values": [{"measurement": "% of inhibition", "setting": "[5]", "value": 63.9, "unit": "%"}, {"measurement": "% of inhibition", "setting": "[6]", "value": 95.5, "unit": "%"}, {"measurement": "Ki", "setting": "[7]", "value": 19.6, "unit": "nM"}, {"measurement": "% of control", "setting": "[8]", "value": 51, "unit": "%"}, {"measurement": "% of inhibition", "setting": "[9]", "value": 63.9, "unit": "%"}, {"measurement": "% of inhibition", "setting": "[10]", "value": 63.5, "unit": "%"}, {"measurement": "% of inhibition", "setting": "[11]", "value": 63.5, "unit": "%"}]}
{"smiles": "COc1ccc2c(c1)O[C@H](c1ccc(OC)c(OC)c1)C[C@@H]2NC(=O)C1(c2ccc3c(c2)OC(F)(F)O3)CC1", "note": "[A-1596584]", "values": [{"measurement": "Ki", "setting": "[12]", "value": 218, "unit": "nM"}, {"measurement": "% of control", "setting": "[13]", "value": 39, "unit": "%"}, {"measurement": "% of control", "setting": "[14]", "value": 56, "unit": "%"}]}
